Measured values from patent US20230295234A1, “ANTIMICROBIAL PEPTIDOMIMETICS” (SPEXIS AG, priority 2020, published 2023).
Where two headings read alike, the source gives them in different places. Bridge positions count the residues as written; N and C are the ends. Square brackets hold non-standard residues; d marks the D form. Peptide text beside a SMILES is read from it. Pro(4R-NH2) = N[C@H]1CN[C@H](C(=O)O)C1; Gly(N-2-aminoethyl) = NCCNCC(=O)O; Hyp = O=C(O)[C@@H]1C[C@@H](O)CN1; Pen = CC(C)(S)[C@H](N)C(=O)O; dDab = NCC[C@@H](N)C(=O)O; Nle = CCCC[C@H](N)C(=O)O; Dab = NCC[C@H](N)C(=O)O; Nlys = NCCCCNCC(=O)O

What was measured:
[1] = test system: Escherichia coli ATCC 25922; conditions: ATCC 25922
Outline: (§1)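 Standardized inocula (0.5 McFarland in saline, then diluted in MHII broth to approximately 5×10^5 CFU/mL) were exposed to two-fold dilution series of each peptide in the presence of polysorbate 80 (0.002% final).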

[2] = test system: Escherichia coli MCR-1 Af 45
Outline: as §1

[3] = test system: Klebsiella pneumoniae SSI3010; conditions: SSI3010
Outline: as §1

[4] = test system: human red blood cells (hRBC); test: Hemolysis of human red blood cells; type: cell-based; conditions: red cells of human, 1 h
Outline: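 Percent hemolysis is OD540 of peptide-treated supernatant relative to water-lysed cells. Each peptide was tested at 200 μg/mL against 20% (v/v) washed human erythrocytes. Incubation was 1 h at 37 °C, 300 rpm.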

[5] = Mueller-Hinton broth II, 18-20 hours at 35° C.

SMILES	Escherichia coli ATCC 25922 MIC [1]	Escherichia coli MCR-1 Af 45 MIC ([2]; MCR-1 Af 45)	Klebsiella pneumoniae SSI3010 MIC [3]	Hemolysis at 0.2 g/L [4]	Escherichia coli MCR-1 Af 45 MIC [2, 5]
CC[C@H](C)[C@H](NC(=O)CN(CCN)C(=O)[C@@H](NC(=O)[C@@H]1C[C@@H](O)CN1C(=O)CNCCCCN)C(C)C)C(=O)N[C@H](C(=O)N[C@@H](Cc1ccc(O)cc1)C(=O)N[C@@H]1C(=O)N[C@@H](CC(N)=O)C(=O)N[C@@H](CCCNC(=N)N)C(=O)N[C@@H](CCN)C(=O)N[C@@H]([C@@H](C)O)C(=O)N[C@H](CCN)C(=O)N[C@@H](CCCCN)C(=O)N[C@H](C(=O)N[C@@H](CCN)C(=O)N[C@@H](CCCNC(=N)N)C(=O)N[C@@H](Cc2ccc(O)cc2)C(=O)O)CSSC1(C)C)[C@@H](C)O [Example 49, Nlys-Hyp-Val-Ndab-Ile-Thr-Tyr-Pen-Asn-Arg-Dab-Thr-^DDab-Lys-Cys-Dab-Arg-Tyr] (H-[Nlys][Hyp]V[Gly(N-2-aminoethyl)]ITY[Pen]NR[Dab]T[dDab]KC[Dab]RY-OH; disulfide 8-15; N-terminus and C-terminus assumed)	0.125 µg/mL	0.125 µg/mL	0.25 µg/mL	0%	
CC[C@H](C)[C@H](NC(=O)[C@@H]1C[C@@H](O)CN1C(=O)[C@@H](NC(=O)[C@@H]1C[C@@H](O)CN1C(=O)[C@H](CCCCN)NC(=N)N)C(C)C)C(=O)N[C@H](C(=O)N[C@@H](Cc1ccc(O)cc1)C(=O)N[C@@H]1C(=O)N[C@@H](CC(N)=O)C(=O)N[C@@H](CCCNC(=N)N)C(=O)N[C@@H](CCN)C(=O)N[C@@H]([C@@H](C)O)C(=O)N[C@H](CCN)C(=O)N[C@@H](CCCCN)C(=O)N[C@H](C(=O)N[C@@H](CCN)C(=O)N[C@@H](CCCNC(=N)N)C(=O)N[C@@H](Cc2ccc(O)cc2)C(=O)O)CSSC1(C)C)[C@@H](C)O [Example 63, Gua-Lys-Hyp-Val-Hyp-Ile-Thr-Tyr-Pen-Asn-Arg-Dab-Thr-^DDab-Lys-Cys-Dab-Arg-Tyr] (HELM PEPTIDE1{[N=C(N)N[C@@H](CCCCN)C(=O)[*:2]].[Hyp].V.[Hyp].I.T.Y.[Pen].N.R.[Dab].T.[NCC[C@@H](N[*:1])C(=O)[*:2]].K.C.[Dab].R.Y}$PEPTIDE1,PEPTIDE1,8:R3-15:R3$$$V2.0)	0.0625 µg/mL	0.0625 µg/mL	0.125 µg/mL	0%	
CC[C@H](C)[C@H](NC(=O)[C@@H]1C[C@@H](O)CN1C(=O)[C@@H](N)C(C)C)C(=O)N[C@H](C(=O)N[C@@H](Cc1ccc(O)cc1)C(=O)N[C@@H]1C(=O)N[C@@H](CCCCN)C(=O)N[C@@H](CCCNC(=N)N)C(=O)N[C@@H](CCN)C(=O)N[C@@H]([C@@H](C)O)C(=O)N[C@H](CCN)C(=O)N[C@@H](CCCCN)C(=O)N[C@H](C(=O)N[C@@H](CCN)C(=O)N[C@@H](CCCNC(=N)N)C(=O)N[C@@H](Cc2ccc(O)cc2)C(=O)O)CSSC1(C)C)[C@@H](C)O [Example 166] (HELM PEPTIDE1{V.[Hyp].I.T.Y.[Pen].K.R.[Dab].T.[NCC[C@@H](N[*:1])C(=O)[*:2]].K.C.[Dab].R.Y}$PEPTIDE1,PEPTIDE1,6:R3-13:R3$$$V2.0)	0.25 µg/mL		0.5 µg/mL	0%	0.125 µg/mL
CCCC[C@H](NC(=O)[C@H](CCCNC(=N)N)NC(=O)[C@H](CCN)NC(=O)[C@@H]1CSSC(C)(C)[C@H](NC(=O)[C@H](Cc2ccc(O)cc2)NC(=O)[C@@H](NC(=O)[C@@H](NC(=O)[C@@H]2C[C@@H](N)CN2C(=O)[C@@H](N)C(C)C)[C@@H](C)CC)[C@@H](C)O)C(=O)N[C@@H](CC(N)=O)C(=O)N[C@@H](CCCNC(=N)N)C(=O)N[C@@H](CCN)C(=O)N[C@@H]([C@@H](C)O)C(=O)N[C@H](CCN)C(=O)N[C@@H](CCCCN)C(=O)N1)C(=O)O [Example 138] (HELM PEPTIDE1{V.[N[C@@H]1C[C@@H](C(=O)[*:2])N([*:1])C1].I.T.Y.[Pen].N.R.[Dab].T.[NCC[C@@H](N[*:1])C(=O)[*:2]].K.C.[Dab].R.[Nle]}$PEPTIDE1,PEPTIDE1,6:R3-13:R3$$$V2.0)	0.125 µg/mL		0.25 µg/mL	0%	0.0625 µg/mL

Now from value to molecule, other results behind:

Escherichia coli ATCC 25922 MIC [1]	Escherichia coli MCR-1 Af 45 MIC ([2]; MCR-1 Af 45)	Klebsiella pneumoniae SSI3010 MIC [3]	SMILES	Hemolysis at 0.2 g/L [4]	Escherichia coli MCR-1 Af 45 MIC [2, 5]
0.0625 µg/mL	0.0625 µg/mL	0.0625 µg/mL	CC[C@H](C)[C@H](NC(=O)[C@@H](NC(=O)[C@@H]1CCCN1C(=O)[C@@H](NC(=O)[C@@H]1CCCN1C(=O)[C@H](CCCNC(=N)N)NC(=O)[C@@H](N)CCCCN)C(C)C)[C@@H](C)CC)C(=O)N[C@@H](Cc1ccc(O)cc1)C(=O)N[C@H]1CSSC[C@@H](C(=O)N[C@@H](CCN)C(=O)N[C@@H](CCCNC(=N)N)C(=O)N[C@@H](Cc2ccc(O)cc2)C(=O)O)NC(=O)[C@H](CCCCN)NC(=O)[C@@H](CCN)NC(=O)[C@H]([C@@H](C)O)NC(=O)[C@H](CCN)NC(=O)[C@H](CCCNC(=N)N)NC(=O)[C@H](CC(N)=O)NC1=O [Example 71] (HELM PEPTIDE1{K.R.P.V.P.I.I.Y.C.N.R.[Dab].T.[NCC[C@@H](N[*:1])C(=O)[*:2]].K.C.[Dab].R.Y}$PEPTIDE1,PEPTIDE1,9:R3-16:R3$$$V2.0)	0%	
0.125 µg/mL	0.25 µg/mL	0.25 µg/mL	CCCC[C@H](NC(=O)[C@H](CCCNC(=N)N)NC(=O)[C@H](CCN)NC(=O)[C@@H]1CSSC(C)(C)[C@H](NC(=O)[C@H](Cc2ccc(O)cc2)NC(=O)[C@@H](NC(=O)[C@@H](NC(=O)CN(CCN)C(=O)[C@@H](NC(=O)[C@@H]2CCCN2)C(C)C)[C@@H](C)CC)[C@@H](C)CC)C(=O)N[C@@H](CC(N)=O)C(=O)N[C@@H](CCCNC(=N)N)C(=O)N[C@@H](CCN)C(=O)N[C@@H]([C@@H](C)O)C(=O)N[C@H](CCN)C(=O)N[C@@H](CCCCN)C(=O)N1)C(=O)O [Example 7, Pro-Val-Ndab-Ile-Ile-Tyr-Pen-Asn-Arg-Dab-Thr-^DDab-Lys-Cys-Dab-Arg-Nle] (HELM PEPTIDE1{P.V.[NCCN(CC(=O)[*:2])[*:1]].I.I.Y.[Pen].N.R.[Dab].T.[NCC[C@@H](N[*:1])C(=O)[*:2]].K.C.[Dab].R.[Nle]}$PEPTIDE1,PEPTIDE1,7:R3-14:R3$$$V2.0)	0%	
0.125 µg/mL	0.125 µg/mL	0.25 µg/mL	CCCC[C@H](NC(=O)[C@H](CCCNC(=N)N)NC(=O)[C@H](CCN)NC(=O)[C@@H]1CSSC(C)(C)[C@H](NC(=O)[C@H](Cc2ccc(O)cc2)NC(=O)[C@@H](NC(=O)[C@@H](NC(=O)CN(CCN)C(=O)[C@@H](NC(=O)[C@@H]2C[C@@H](N)CN2)C(C)C)[C@@H](C)CC)[C@@H](C)CC)C(=O)N[C@@H](CC(N)=O)C(=O)N[C@@H](CCCNC(=N)N)C(=O)N[C@@H](CCN)C(=O)N[C@@H]([C@@H](C)O)C(=O)N[C@H](CCN)C(=O)N[C@@H](CCCCN)C(=O)N1)C(=O)O [Example 10, Pro((4R)NH2)-Val-Ndab-Ile-Ile-Tyr-Pen-Asn-Arg-Dab-Thr-^DDab-Lys-Cys-Dab-Arg-Nle] (H-[Pro(4R-NH2)]V[Gly(N-2-aminoethyl)]IIY[Pen]NR[Dab]T[dDab]KC[Dab]R[Nle]-OH; disulfide 7-14)	0%	
0.0625 µg/mL	0.125 µg/mL	0.125 µg/mL	CC[C@H](C)[C@H](NC(=O)[C@@H]1C[C@@H](O)CN1C(=O)[C@@H](NC(=O)[C@@H]1C[C@@H](O)CN1C(=O)[C@H](CCCCN)NC(=O)[C@@H](N)CCCCN)C(C)C)C(=O)N[C@H](C(=O)N[C@@H](Cc1ccc(O)cc1)C(=O)N[C@@H]1C(=O)N[C@@H](Cc2c[nH]cn2)C(=O)N[C@@H](CCCNC(=N)N)C(=O)N[C@@H](CCN)C(=O)N[C@@H]([C@@H](C)O)C(=O)N[C@H](CCN)C(=O)N[C@@H](CCCCN)C(=O)N[C@H](C(=O)N[C@@H](CCN)C(=O)N[C@@H](CCCNC(=N)N)C(=O)N[C@@H](Cc2ccc(O)cc2)C(=O)O)CSSC1(C)C)[C@@H](C)O [Example 122, Lys-Lys-Hyp-Val-Hyp-Ile-Thr-Tyr-Pen-His-Arg-Dab-Thr-^DDab-Lys-Cys-Dab-Arg-Tyr] (HELM PEPTIDE1{K.K.[Hyp].V.[Hyp].I.T.Y.[Pen].H.R.[Dab].T.[NCC[C@@H](N[*:1])C(=O)[*:2]].K.C.[Dab].R.Y}$PEPTIDE1,PEPTIDE1,9:R3-16:R3$$$V2.0)	0%	
0.0625 µg/mL	0.0625 µg/mL	0.125 µg/mL	CC[C@H](C)[C@H](NC(=O)[C@@H](NC(=O)[C@@H]1CCCN1C(=O)[C@@H](NC(=O)[C@@H]1CCCN1C(=O)[C@H](CCCCN)NC(=O)CNCCN)C(C)C)[C@@H](C)CC)C(=O)N[C@@H](Cc1ccc(O)cc1)C(=O)N[C@H]1CSSC[C@@H](C(=O)N[C@@H](CCN)C(=O)N[C@@H](CCCNC(=N)N)C(=O)N[C@@H](Cc2ccc(O)cc2)C(=O)O)NC(=O)[C@H](CCCCN)NC(=O)[C@@H](CCN)NC(=O)[C@H]([C@@H](C)O)NC(=O)[C@H](CCN)NC(=O)[C@H](CCCNC(=N)N)NC(=O)[C@H](CC(N)=O)NC1=O [Example 96] (HELM PEPTIDE1{[NCCNCC(=O)[*:2]].K.P.V.P.I.I.Y.C.N.R.[Dab].T.[NCC[C@@H](N[*:1])C(=O)[*:2]].K.C.[Dab].R.Y}$PEPTIDE1,PEPTIDE1,9:R3-16:R3$$$V2.0)	0%	
